Assays:
Type in all cases: in vivo
[1] = test system: Triticum aestivum (spring wheat), TRZAS; assay: Greenhouse postemergence safening trial, visual injury on spring wheat
Experimental: (§1) Greenhouse Trial Methodology-Evaluation of Postemergence Herbicidal […] in Crops […] When required to ensure good germination and healthy plants, a fungicide treatment and/or other chemical or physical treatment was applied. The plants were grown for 7-36 days (d) in a greenhouse with an approximate 14-hour (h) photoperiod which was maintained at about 23° C. during the day and 22° C. during the night. Nutrients and water were added on a regular basis and supplemental lighting was provided with overhead metal halide 1000-Watt lamps as necessary. The plants were employed for testing when they reached the second or third true leaf stage. Emulsifiable concentrates of each of each pyridine carboxylate herbicide (Compound A or Compound B) were prepared at 100 grams acid equivalent per liter (g ae/L). […] The concentrated stock solutions were further diluted with an aqueous mixture of 1.25% […] or MSO® Concentrate with LECI-TECH® to obtain stock solutions at reduced application rates for each herbicide. Spray solutions of the herbicide combinations (Compound A or Compound B plus safener) were prepared by adding weighed amounts or aliquots of the safener to the stock solutions of Compound A or Compound B to form 12-mL spray solutions in two-way combinations. […] Control plants were sprayed in the same manner with the solvent blank. All herbicide (component a) application rates are given as “g ae/ha” and all safener (component b) application rates are given as “g ai/ha.” The treated plants and control plants were placed in a greenhouse as described above and watered by sub-irrigation to prevent wash-off of the test compounds.

[2] = test system: Triticum aestivum (winter wheat), TRZAW; assay: Greenhouse postemergence safening trial, visual injury on winter wheat
Experimental: as §1

[3] = test system: Triticum aestivum (durum wheat), TRZDU; assay: Greenhouse postemergence safening trial, visual injury on durum wheat
Experimental: as §1

[4] = test system: Hordeum vulgare (spring barley), HORVS; assay: Greenhouse postemergence safening trial, visual injury on spring barley
Experimental: as §1

[5] = test system: Hordeum vulgare (winter barley), HORVW; assay: Greenhouse postemergence safening trial, visual injury on winter barley
Experimental: as §1

[6] = test system: Avena sativa (common oat), AVESA; assay: Greenhouse postemergence safening trial, visual injury on common oat
Experimental: as §1

[7] = test system: Matricaria inodora (false chamomile), MATIN; assay: Greenhouse postemergence trial, visual injury on false chamomile
Source text: (§2) Greenhouse Trial Methodology—Evaluation of Postemergence Herbicidal Safening in Crops
(§3) Seeds of the desired test plant species were planted in a 90:10% v/v (volume/volume) mixture of PRO-MIX® BX (Premier Tech Horticulture, Quakertown, PA, USA) and PROFILE® GREENS GRADE™ (Profile Products LLC, Buffalo Grove, IL, USA) planting mixture, which typically has a pH of 5.2 to 6.2 and an organic matter content of at least 50 percent, in plastic pots with a surface area of 103.2 square centimeters (cm^2). When required to ensure good germination and healthy plants, a fungicide treatment and/or other chemical or physical treatment was applied. The plants were grown for 7-36 days (d) in a greenhouse with an approximate 14-hour (h) photoperiod which was maintained at about 23° C. during the day and 22° C. during the night. Nutrients and water were added on a regular basis and supplemental lighting was provided with overhead metal halide 1000-Watt lamps as necessary. The plants were employed for testing when they reached the second or third true leaf stage.
(§4) Emulsifiable concentrates of each of each pyridine carboxylate herbicide (Compound A or Compound B) were prepared at 100 grams acid equivalent per liter (g ae/L). An aliquot of each emulsifiable concentrate was placed in a 25 mL glass vial and diluted with an aqueous mixture of 1.25% (v/v) ACTIROB® B esterified rapeseed oil (Bayer Crop Science, Research Triangle Park, NC, USA) or MSO® Concentrate with LECI-TECH® methylated soybean oil (Loveland Products, Loveland, CO, USA) to obtain concentrated stock solutions at the highest application rate for each herbicide, based upon a 12 milliliter (mL) application volume at a rate of 187 liters per hectare (L/ha). The concentrated stock solutions were further diluted with an aqueous mixture of 1.25% v/v ACTIROB® B or MSO® Concentrate with LECI-TECH® to obtain stock solutions at reduced application rates for each herbicide. Spray solutions of the herbicide combinations (Compound A or Compound B plus safener) were prepared by adding weighed amounts or aliquots of the safener to the stock solutions of Compound A or Compound B to form 12-mL spray solutions in two-way combinations.
(§5) The spray solutions were applied to the plant material with an overhead Mandel track sprayer equipped with 8002E nozzles calibrated to deliver 187 L/ha over an application area of 0.503 square meters (m^2) at a spray height of 18 inches (43 centimeters (cm)) above the average plant canopy. Control plants were sprayed in the same manner with the solvent blank. All herbicide (component a) application rates are given as “g ae/ha” and all safener (component b) application rates are given as “g ai/ha.”
(§6) The treated plants and control plants were placed in a greenhouse as described above and watered by sub-irrigation to prevent wash-off of the test compounds. After 20-22 d, the condition of the test plants as compared with that of the control plants was determined visually and scored on a scale of 0 to 100 percent where 0 corresponds to no injury and 100 corresponds to complete kill.

[8] = test system: Sinapis arvensis (wild mustard), SINAR; assay: Greenhouse postemergence trial, visual injury on wild mustard
Source text: as §2, §3, §4, §5, §6

[9] = test system: Anthemis arvensis (field chamomile), ANTAR; assay: Greenhouse postemergence trial, visual injury on field chamomile
Source text: as §2, §3, §4, §5, §6

[10] = test system: Brassica napus (winter rape), BRSNW; assay: Greenhouse postemergence trial, visual injury on winter rape
Experimental: as §1

maize (ZEAMX) = assay: Greenhouse postemergence safening trial, visual injury on maize; conditions: Table 18
Source text: as §2, §3, §4, §5, §6

[11] = test system: pigweed (AMARE, Amaranthus retroflexus); assay: Greenhouse postemergence trial, visual injury on pigweed; conditions: Table 18
Source text: as §2, §3, §4, §5, §6

[12] = test system: nutsedge (CYPES, Cyperus esculentus); assay: Greenhouse postemergence trial, visual injury on nutsedge; conditions: Table 18
Source text: as §2, §3, §4, §5, §6

[13] = test system: common sunflower (HELAN, Helianthus annuus); assay: Greenhouse postemergence trial, visual injury on common sunflower; conditions: Table 18
Source text: as §2, §3, §4, §5, §6

[14] = test system: Salsola kali (Russian thistle), SASKR; assay: Greenhouse postemergence trial, visual injury on Russian thistle; conditions: herbicide alone 20 g/ha
Experimental: as §1

[15] = test system: Fagopyrum esculentum (common buckwheat), FAGES; assay: Greenhouse postemergence trial, visual injury on common buckwheat; conditions: herbicide alone 20 g/ha
Source text: as §2, §3, §4, §5, §6

[16] = test system: Polygonum convulvus (wild buckwheat), POLCO; assay: Greenhouse postemergence trial, visual injury on wild buckwheat; conditions: herbicide alone 20 g/ha
Source text: as §2, §3, §4, §5, §6

## O=C(O)COc1ccc(Cl)c2cccnc12 [CQC-a, cloquintocet-acid]
[1]; safener alone 5 g/ha
  % visual injury, Ob: 0%
[1]; safener alone 10 g/ha
  % visual injury, Ob: 0%
[1]; safener alone 20 g/ha
  % visual injury, Ob: 0%
[1]; safener alone 40 g/ha
  % visual injury, Ob: 0%
[1]; safener alone 80 g/ha
  % visual injury, Ob: 0%
[1]; safener alone 120 g/ha
  % visual injury, Ob: 0%
[2]; safener alone 5 g/ha
  % visual injury, Ob: 0%
[2]; safener alone 10 g/ha
  % visual injury, Ob: 0%
[2]; safener alone 20 g/ha
  % visual injury, Ob: 0%
[2]; safener alone 40 g/ha
  % visual injury Δ: 0%
  % visual injury, Ob: 0%
[2]; safener alone 80 g/ha
  % visual injury, Ob: 0%
[2]; safener alone 120 g/ha
  % visual injury, Ob: 0%
[3]; safener alone 40 g/ha
  % visual injury, Ob: 0%
[4]; safener alone 5 g/ha
  % visual injury, Ob: 0%
[4]; safener alone 10 g/ha
  % visual injury, Ob: 0%
[4]; safener alone 20 g/ha
  % visual injury, Ob: 0%
[4]; safener alone 40 g/ha
  % visual injury, Ob: 0%
[4]; safener alone 80 g/ha
  % visual injury, Ob: 0%
[4]; safener alone 120 g/ha
  % visual injury, Ob: 0%
[5]; safener alone 5 g/ha
  % visual injury, Ob: 0%
[5]; safener alone 10 g/ha
  % visual injury, Ob: 0%
[5]; safener alone 20 g/ha
  % visual injury, Ob: 0%
[5]; safener alone 40 g/ha
  % visual injury, Ob: 0%
[5]; safener alone 80 g/ha
  % visual injury, Ob: 0%
[6]; safener alone 40 g/ha
  % visual injury, Ob: 0%
[7]; safener alone 10 g/ha
  % visual injury, Ob: 0%
[7]; safener alone 20 g/ha
  % visual injury, Ob: 0%
[7]; safener alone 40 g/ha
  % visual injury, Ob: 0%
[7]; safener alone 80 g/ha
  % visual injury, Ob: 0%
[8]; safener alone 10 g/ha
  % visual injury, Ob: 0%
[8]; safener alone 20 g/ha
  % visual injury, Ob: 0%
[8]; safener alone 40 g/ha
  % visual injury, Ob: 0%
[8]; safener alone 80 g/ha
  % visual injury, Ob: 0%
[9]; safener alone 5 g/ha
  % visual injury, Ob: 0%
[9]; safener alone 10 g/ha
  % visual injury, Ob: 0%
[9]; safener alone 20 g/ha
  % visual injury, Ob: 0%
[9]; safener alone 40 g/ha
  % visual injury, Ob: 0%
[10]; safener alone 5 g/ha
  % visual injury, Ob: 0%
[10]; safener alone 10 g/ha
  % visual injury, Ob: 0%
[10]; safener alone 20 g/ha
  % visual injury, Ob: 0%
[10]; safener alone 40 g/ha
  % visual injury, Ob: 0%
Maize (ZEAMX); CQC-a 20 g/ha alone
  % visual injury, Ob: 0%
Maize (ZEAMX); CQC-a 40 g/ha alone
  % visual injury, Ob: 0%
Maize (ZEAMX); CQC-a 80 g/ha alone
  % visual injury, Ob: 0%
Maize (ZEAMX); CQC-a 120 g/ha alone
  % visual injury, Ob: 0%
[11]; CQC-a 20 g/ha alone
  % visual injury, Ob: 0%
[11]; CQC-a 40 g/ha alone
  % visual injury, Ob: 0%
[11]; CQC-a 80 g/ha alone
  % visual injury, Ob: 0%
[11]; CQC-a 120 g/ha alone
  % visual injury, Ob: 0%
[12]; CQC-a 20 g/ha alone
  % visual injury, Ob: 0%
[12]; CQC-a 40 g/ha alone
  % visual injury, Ob: 0%
[12]; CQC-a 80 g/ha alone
  % visual injury, Ob: 0%
[12]; CQC-a 120 g/ha alone
  % visual injury, Ob: 0%
[13]; CQC-a 20 g/ha alone
  % visual injury, Ob: 0%
[13]; CQC-a 40 g/ha alone
  % visual injury, Ob: 0%
[13]; CQC-a 80 g/ha alone
  % visual injury, Ob: 0%
[13]; CQC-a 120 g/ha alone
  % visual injury, Ob: 0%

## C#CCOC(=O)c1nc(-c2ccc3cc[nH]c3c2F)c(F)c(N)c1Cl [Compound B, propargyl 4-amino-3-chloro-5-fluoro-6-(7-fluoro-1H-indol-6-yl)pyridine-2-carboxylate]
[1]; herbicide alone 20 g/ha
  % visual injury, Ob: 28%
[1]; herbicide alone 40 g/ha
  % visual injury, Ob: 48%
[2]; herbicide alone 40 g/ha
  % visual injury, Ob: 50%
[3]; herbicide alone 40 g/ha
  % visual injury, Ob: 40%
[4]; herbicide alone 20 g/ha
  % visual injury, Ob: 30%
[4]; herbicide alone 40 g/ha
  % visual injury, Ob: 25%
[5]; herbicide alone 40 g/ha
  % visual injury Δ: 0%
  % visual injury, Ob: 38%
[6]; herbicide alone 40 g/ha
  % visual injury, Ob: 0%
[8]; herbicide alone 20 g/ha
  % visual injury, Ob: 80%
[10]; herbicide alone 20 g/ha
  % visual injury, Ob: 100%
[14]
  % visual injury, Ob: 70%
[15]
  % visual injury, Ob: 78%
[16]
  % visual injury, Ob: 100%
